In patent US9302999B2, “Substituted triazoles as herbicides” (E. I. DU PONT DE NEMOURS AND COMPANY, priority 2012, dated 2016):

Experiments:
[1] = tested on: Waterhemp; experiment: Test C preemergence: waterhemp; format: in vivo, Amaranthus rudis; settings: scale 0 to 100, 0 no effect, 100 complete control
[2] = tested on: speedwell (bird's-eye speedwell, Veronica persica); experiment: Test D pre-/postemergence: speedwell; format: in vivo; settings: Preemergence
Summary of the method: (§1)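 Visual control ratings (0–100) after 14–21 days, controlled environment. Preemergence on silt loam; postemergence on 2–18 cm plants.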

[3] = tested on: ryegrass, Italian (Italian ryegrass, Lolium multiflorum); experiment: Test D pre-/postemergence: ryegrass, Italian; format: in vivo
Summary of the method: as §1

[4] = tested on: johnsongrass (Sorghum halepense); experiment: Test F pre-/postemergence: johnsongrass; format: in vivo; settings: Preemergence
Source text: Seeds of plant species selected from corn (Zea mays), soybean (Glycine max), velvetleaf (Abutilon theophrasti), lambsquarters (Chenopodium album), poinsettia, wild (wild poinsettia, Euphorbia heterophylla), pigweed, palmer (palmer pigweed, Amaranthus palmeri), waterhemp (common waterhemp, Amaranthus rudis), surinam grass (Brachiaria decumbens), crabgrass, Brazil (Brazilian crabgrass, Digitaria horizontalis), panicum, fall (fall panicum Panicum dichotomiflorum), crabgrass, large (large crabgrass, Digitaria sanguinalis), foxtail, giant (giant foxtail, Setaria faberii), foxtail, green (green foxtail Setaria viridis), goosegrass (Eleusine indica), ragweed (common ragweed, Ambrosia elatior), barnyardgrass (Echinochloa crus-galli), sandbur (southern sandbur, Cenchrus echinatus), arrowleaf sida (Sida rhombifolia), ryegrass, Italian (Italian ryegrass, Lolium multiflorum), dayflower, VA (Virginia (VA) dayflower, Commelina virginica), field bindweed (Convolvulus arvensis), cocklebur (common cocklebur, Xanthium strumarium), morningglory (Ipomoea coccinea), nightshade (eastern black nightshade, Solanum ptycanthum), kochia (Kochia scoparia), nutsedge, yellow (yellow nutsedge, Cyperus esculentus), johnsongrass (Sorghum halepense), smartweed (ladysthumb smartweed, Polygonum persicaria), and beggarticks (hairy beggarticks, Bidens pilosa), were planted into a silt loam soil and treated preemergence with test chemicals formulated in a non-phytotoxic solvent mixture which included a surfactant. At the same time, plants selected from these crop and weed species and also pigweed (Amaranthus retroflexus), waterhemp_RES1 (ALS/Triazine resistant common waterhemp, Amaranthus rudis) and waterhemp_RES2 (ALS/HPPD resistant common waterhemp, Amaranthus rudis) were planted in pots containing a planting medium comprising spaghnum peat moss, vermiculite, wetting agent and starter nutrients treated with postemergence applications of some of the test chemicals formulated in the same manner. Plants ranged in height from 2 to 18 cm for postemergence treatments (1- to 4-leaf stage).
Treated plants and controls were maintained in a greenhouse for 14 to 21 days, after which time all species were compared to controls and visually evaluated. Plant response ratings, summarized in Table E, are based on a scale of 0 to 100 where 0 is no effect and 100 is complete control. A dash (-) response means no test result.

[5] = tested on: canarygrass (Phalaris minor); experiment: Test D pre-/postemergence: canarygrass; format: in vivo
Summary of the method: as §1

[6] = tested on: chickweed (common chickweed, Stellaria media); experiment: Test D pre-/postemergence: chickweed; format: in vivo
Summary of the method: as §1

[7] = tested on: chamomile (scentless chamomile, Matricaria inodora); experiment: Test D pre-/postemergence: chamomile; format: in vivo
Summary of the method: as §1

[8] = 16 g ai/ha, scale 0 to 100, 0 no effect, 100 complete control
[9] = 31 g ai/ha, scale 0 to 100, 0 no effect, 100 complete control
[10] = Postemergence, 31 g ai/ha, scale 0 to 100 (0 no effect, 100 complete control)
[11] = Postemergence, 62 g ai/ha, scale 0 to 100 (0 no effect, 100 complete control)
[12] = Postemergence, 125 g ai/ha, scale 0 to 100, 0 no effect, 100 complete control
[13] = Postemergence, 16 g ai/ha, scale 0 to 100
[14] = Preemergence, 16 g ai/ha, scale 0 to 100, 0 no effect, 100 complete control
[15] = Preemergence, 31 g ai/ha, scale 0 to 100, 0 no effect, 100 complete control
[16] = Preemergence, 62 g ai/ha, scale 0 to 100
[17] = Preemergence, 125 g ai/ha, scale 0 to 100

FCc1nn(-c2ccc(F)cc2)nc1Oc1ccnc(C(F)(F)F)c1 [Compound 160]
Plant response rating, Waterhemp ([1]; 125 g ai/ha): 100

CCOCc1nn(-c2ccc(F)cc2)nc1Oc1ccnc(C(F)(F)F)c1 [Compound 163]
Plant response rating, Waterhemp ([1]; 125 g ai/ha): 100

CCOc1nn(-c2ccc(Cl)cc2)nc1Cc1ccnc(C(F)(F)F)c1 [Compound 188]
Plant response rating, Waterhemp ([1]; 125 g ai/ha): 100
Plant response rating, Waterhemp ([1]; 250 g ai/ha): 100

CCOc1nn(-c2ccc(F)cc2)nc1Cc1ccnc(C(F)(F)F)c1 [Compound 196, 4-[[5-ethoxy-2-(4-fluorophenyl)-2H-1,2,3-triazol-4-yl]methyl]-2-(trifluoromethyl)pyridine]
Plant response rating, Speedwell [2, 8]: 5
Plant response rating, Speedwell [2, 9]: 100
Plant response rating, Speedwell ([2]; 62 g ai/ha, scale 0 to 100): 100
Plant response rating, Speedwell ([2]; 125 g ai/ha, scale 0 to 100): 100
Plant response rating: Ryegrass, Italian [3, 10]: 15
Plant response rating: Ryegrass, Italian [3, 11]: 30
Plant response rating: Ryegrass, Italian [3, 12]: 75
Plant response rating, Ryegrass, Italian [3, 13]: 5
Plant response rating, Ryegrass, Italian [3, 14]: 5
Plant response rating, Ryegrass, Italian [3, 15]: 10
Plant response rating, Ryegrass, Italian [3, 16]: 60
Plant response rating, Ryegrass, Italian [3, 17]: 100
Plant response rating, Johnsongrass [4, 8]: 65
Plant response rating, Johnsongrass [4, 9]: 65
Plant response rating, Johnsongrass ([4]; 62 g ai/ha, scale 0 to 100): 95
Plant response rating, Johnsongrass ([4]; 125 g ai/ha, scale 0 to 100): 98
Plant response rating: Canarygrass [5, 10]: 70
Plant response rating: Canarygrass [5, 11]: 80
Plant response rating: Canarygrass [5, 12]: 85
Plant response rating, Canarygrass [5, 13]: 30
Plant response rating, Canarygrass [5, 14]: 40
Plant response rating, Canarygrass [5, 15]: 100
Plant response rating, Canarygrass [5, 16]: 100
Plant response rating, Canarygrass [5, 17]: 100
Plant response rating: Chickweed [6, 10]: 85
Plant response rating: Chickweed [6, 11]: 95
Plant response rating: Chickweed [6, 12]: 100
Plant response rating, Chickweed [6, 13]: 70
Plant response rating, Chickweed [6, 14]: 50
Plant response rating, Chickweed [6, 15]: 65
Plant response rating, Chickweed [6, 16]: 100
Plant response rating, Chickweed [6, 17]: 100
Plant response rating: Chamomile [7, 10]: 70
Plant response rating: Chamomile [7, 11]: 75
Plant response rating: Chamomile [7, 12]: 85
Plant response rating, Chamomile [7, 13]: 60
Plant response rating, Chamomile [7, 14]: 55
Plant response rating, Chamomile [7, 15]: 85
Plant response rating, Chamomile [7, 16]: 100
Plant response rating, Chamomile [7, 17]: 100
